Source: ChEMBL document CHEMBL1201862, “PubChem BioAssay data set” (2004)
Active and inactive are the calls of the source.

How the values were obtained:
[1] = system: CHO; experiment: CHO cell viability loss, potency – luminescence, cytotoxicity control for TLR9-MyD88 binding inhibitor project, dose response (AID 588339); assay type: functional, cell-based, hamster; conditions: Cricetulus griseus;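 also: CHO cells stably coexpressing TLR9 and MyD88 fusions from primary screen; compound exposure lasted 48 hours before viability readout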
[2] = molecular target: Beta Lactamase (Pseudomonas aeruginosa, UniProt Q932Y6); experiment: BLA reporter interference, concentration series – BLA reporter cells, FRET fluorescence, artefact control for TLR9-MyD88 binding inhibitor project, dose response (AID 588341); assay type: cell-based;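 also: cell based assay in CHO-K1 cells stably expressing beta-lactamase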
Beta Lactamase, sequence (Q932Y6 whole entry, the tested form may be a part): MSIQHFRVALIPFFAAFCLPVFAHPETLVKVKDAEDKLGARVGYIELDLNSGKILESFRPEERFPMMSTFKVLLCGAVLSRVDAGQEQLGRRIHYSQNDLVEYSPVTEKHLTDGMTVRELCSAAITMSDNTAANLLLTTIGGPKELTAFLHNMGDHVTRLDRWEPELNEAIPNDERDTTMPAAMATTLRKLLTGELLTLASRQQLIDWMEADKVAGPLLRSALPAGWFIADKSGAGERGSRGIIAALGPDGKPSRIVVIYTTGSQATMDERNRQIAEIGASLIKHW

[3] = molecular target: Hepatocyte nuclear factor 4-alpha (Homo sapiens, UniProt P41235); assay type: functional, cell-based;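 also: biochemical luminescence-based dose-response counterscreen measuring inhibition of HNF4 dimerization, run alongside a screen for blockers of ABHD5–perilipin-5 interaction; split luciferase complementation of HNF4 fusion proteins in cell lysate measuring dimerization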
Hepatocyte nuclear factor 4-alpha, sequence (P41235 whole entry, the tested form may be a part): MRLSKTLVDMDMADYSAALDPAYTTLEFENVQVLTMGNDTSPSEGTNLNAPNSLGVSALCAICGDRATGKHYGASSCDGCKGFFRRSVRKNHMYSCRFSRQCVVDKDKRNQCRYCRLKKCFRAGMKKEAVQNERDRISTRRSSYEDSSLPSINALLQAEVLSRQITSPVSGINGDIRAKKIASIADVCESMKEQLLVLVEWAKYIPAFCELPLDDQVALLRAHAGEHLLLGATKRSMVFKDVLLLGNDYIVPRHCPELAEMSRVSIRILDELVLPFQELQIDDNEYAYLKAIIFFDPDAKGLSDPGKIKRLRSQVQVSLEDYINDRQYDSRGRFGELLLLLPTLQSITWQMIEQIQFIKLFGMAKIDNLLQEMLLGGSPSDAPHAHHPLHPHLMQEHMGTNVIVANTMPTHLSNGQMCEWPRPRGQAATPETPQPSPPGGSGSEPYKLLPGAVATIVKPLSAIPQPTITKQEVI

[4] = inhibition of ARNT PAS-B/TACC3 complex formation – biochemical, AlphaScreen, cherry-picked samples, confirmation (AID 651703); assay type: functional, Homo sapiens;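 also: His-tagged ARNT PAS-B domain paired with GST-TACC3 E629A dimer coactivator fragment; potency of inhibitors that break up the complex and lower AlphaScreen signal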
[5] = intracellular Trypanosoma cruzi inhibitors in host cells – cell-based, plate reader, cherry-pick samples, set 3, dose response (AID 651818); assay type: functional;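 also: compounds incubated with infected cells for about four days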
[6] = molecular target: DNA repair and recombination protein RAD54-like (Homo sapiens, UniProt Q92698); experiment: RAD54 Holliday junction migration blockers – biochemical, fluorescence, cherry-picked samples, dose series, confirmation (AID 651657); assay type: functional
DNA repair and recombination protein RAD54-like, sequence (Q92698 whole entry): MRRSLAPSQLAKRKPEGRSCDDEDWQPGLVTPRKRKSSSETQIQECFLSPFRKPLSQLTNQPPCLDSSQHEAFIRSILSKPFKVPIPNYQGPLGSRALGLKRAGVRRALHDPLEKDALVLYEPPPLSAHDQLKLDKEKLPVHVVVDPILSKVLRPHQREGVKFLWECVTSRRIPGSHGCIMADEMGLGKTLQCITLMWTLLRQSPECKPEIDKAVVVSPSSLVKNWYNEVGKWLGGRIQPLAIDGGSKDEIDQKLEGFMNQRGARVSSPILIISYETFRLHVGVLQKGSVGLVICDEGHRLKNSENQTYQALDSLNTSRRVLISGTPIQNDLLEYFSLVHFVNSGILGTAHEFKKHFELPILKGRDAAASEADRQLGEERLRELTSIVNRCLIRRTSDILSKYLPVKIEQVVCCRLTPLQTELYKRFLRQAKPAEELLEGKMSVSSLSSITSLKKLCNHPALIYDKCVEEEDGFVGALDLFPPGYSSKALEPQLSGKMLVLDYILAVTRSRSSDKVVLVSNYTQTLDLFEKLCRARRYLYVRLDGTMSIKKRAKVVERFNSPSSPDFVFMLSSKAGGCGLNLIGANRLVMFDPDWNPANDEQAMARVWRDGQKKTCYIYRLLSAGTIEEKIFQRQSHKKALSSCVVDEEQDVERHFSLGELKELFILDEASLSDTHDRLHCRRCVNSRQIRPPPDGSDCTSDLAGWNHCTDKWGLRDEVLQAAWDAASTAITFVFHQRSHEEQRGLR

[7] = molecular target: T1, DNA repair protein RAD52 homolog (Homo sapiens, UniProt P43351); assay type: functional, biochemical
T1 sequence (P43351 whole entry): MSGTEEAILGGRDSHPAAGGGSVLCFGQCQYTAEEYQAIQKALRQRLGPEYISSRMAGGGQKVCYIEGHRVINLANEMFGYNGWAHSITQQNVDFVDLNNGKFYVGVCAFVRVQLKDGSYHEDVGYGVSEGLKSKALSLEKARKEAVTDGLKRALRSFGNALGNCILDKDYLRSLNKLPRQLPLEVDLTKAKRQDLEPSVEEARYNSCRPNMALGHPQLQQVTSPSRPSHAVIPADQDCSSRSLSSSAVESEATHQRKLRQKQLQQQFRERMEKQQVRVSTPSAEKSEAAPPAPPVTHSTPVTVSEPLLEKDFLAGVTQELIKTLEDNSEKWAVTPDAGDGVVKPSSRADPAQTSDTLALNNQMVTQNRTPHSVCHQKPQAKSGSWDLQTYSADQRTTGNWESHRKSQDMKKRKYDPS

[8] = activation of miR-122 Renilla sensor silencing – cell-based, Huh7 psiCHECK-miR122, Renilla luciferase, cherry-picked, dose response (AID 651956); assay type: functional;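 also: huh7 hepatoma cells stably carrying a psiCHECK-2 miR-122 sensor plasmid; renilla luciferase signal reporting endogenous miR-122 activity after 48 h compound exposure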
[9] = molecular target: Nuclear receptor subfamily 5 group A member 2 (Homo sapiens, UniProt O00482); assay type: functional, cell-based;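 also: HEK293T cells transfected with LRH-1 and a StAR promoter luciferase reporter; potency for inhibitors that lower LRH-1 driven reporter light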
Nuclear receptor subfamily 5 group A member 2, sequence (O00482 whole entry): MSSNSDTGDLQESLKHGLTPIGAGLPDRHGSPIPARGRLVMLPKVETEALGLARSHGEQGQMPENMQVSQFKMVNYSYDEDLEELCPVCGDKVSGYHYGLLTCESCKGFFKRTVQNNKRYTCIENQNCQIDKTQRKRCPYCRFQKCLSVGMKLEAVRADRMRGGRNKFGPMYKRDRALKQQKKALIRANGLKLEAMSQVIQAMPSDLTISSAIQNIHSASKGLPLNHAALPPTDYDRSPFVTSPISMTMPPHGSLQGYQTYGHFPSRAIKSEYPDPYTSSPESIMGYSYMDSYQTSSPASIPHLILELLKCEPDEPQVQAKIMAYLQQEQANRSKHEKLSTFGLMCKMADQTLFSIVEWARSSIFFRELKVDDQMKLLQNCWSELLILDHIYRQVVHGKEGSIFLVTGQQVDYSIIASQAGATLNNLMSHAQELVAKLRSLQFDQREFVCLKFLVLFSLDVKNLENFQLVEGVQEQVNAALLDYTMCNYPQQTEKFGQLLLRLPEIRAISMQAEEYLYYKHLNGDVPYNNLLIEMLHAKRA

[10] = nonselective StAR promoter luciferase inhibitors – cell-based, luminescence, luciferase reporter, counter-screen for LRH-1 inverse agonist project, dose response (AID 651969); assay type: functional
[11] = molecular target: Steroidogenic factor 1 (Homo sapiens, UniProt Q13285); experiment: Counterscreen for inverse agonists of the liver receptor homolog-1 (LRH-1; NR5A2): Luminescence-based cell-based high throughput dose response assay to identify inverse agonists of the Steroidogenic Factor 1 Nuclear Receptor (SF1; NR5A1).; assay type: functional
Steroidogenic factor 1, sequence (Q13285 whole entry): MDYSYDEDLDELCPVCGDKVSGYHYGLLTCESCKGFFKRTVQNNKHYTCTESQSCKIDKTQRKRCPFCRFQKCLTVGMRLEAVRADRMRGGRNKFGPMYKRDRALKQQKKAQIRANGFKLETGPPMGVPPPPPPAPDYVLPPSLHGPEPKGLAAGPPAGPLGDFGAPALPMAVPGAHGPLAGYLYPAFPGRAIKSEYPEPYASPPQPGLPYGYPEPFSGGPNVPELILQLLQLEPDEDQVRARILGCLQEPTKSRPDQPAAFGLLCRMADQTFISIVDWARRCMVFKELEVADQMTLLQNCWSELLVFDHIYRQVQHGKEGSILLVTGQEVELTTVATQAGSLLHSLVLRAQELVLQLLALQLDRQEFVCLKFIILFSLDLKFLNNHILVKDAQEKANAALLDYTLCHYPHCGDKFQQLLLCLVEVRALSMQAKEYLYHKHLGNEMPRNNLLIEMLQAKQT

[12] = system: Streptococcus; experiment: GAS UMAA2166 growth inhibition – luminescence, BacTiterGlo, counter-screen for streptokinase expression inhibitor project, dose response (AID 1915); assay type: functional, organism-based;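 also: potency for reduction of bacterial viability or growth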
[13] = molecular target: Heat shock protein HSP 90-alpha (Homo sapiens, UniProt P07900); assay type: functional, organism-based
[14] = system: Streptococcus sp. 'group A'; experiment: Streptococcus pyogenes SK(-)GAS viability under kanamycin – luminescence, BacTiterGlo, confirmation, counter-screen for streptokinase expression inhibitor project, dose response (AID 1900); assay type: functional, organism-based
[15] = molecular target: T2, Streptokinase A (Streptococcus pyogenes serotype M1, UniProt P10520); experiment: viability-normalized secreted streptokinase activity reduction – plasminogen activation absorbance, OD405, dose response (AID 1914); assay type: functional, Streptococcus pyogenes M1 GAS;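 also: secreted streptokinase activity via plasminogen activation per viability signal from cell pellet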
T2 sequence (P10520 whole entry): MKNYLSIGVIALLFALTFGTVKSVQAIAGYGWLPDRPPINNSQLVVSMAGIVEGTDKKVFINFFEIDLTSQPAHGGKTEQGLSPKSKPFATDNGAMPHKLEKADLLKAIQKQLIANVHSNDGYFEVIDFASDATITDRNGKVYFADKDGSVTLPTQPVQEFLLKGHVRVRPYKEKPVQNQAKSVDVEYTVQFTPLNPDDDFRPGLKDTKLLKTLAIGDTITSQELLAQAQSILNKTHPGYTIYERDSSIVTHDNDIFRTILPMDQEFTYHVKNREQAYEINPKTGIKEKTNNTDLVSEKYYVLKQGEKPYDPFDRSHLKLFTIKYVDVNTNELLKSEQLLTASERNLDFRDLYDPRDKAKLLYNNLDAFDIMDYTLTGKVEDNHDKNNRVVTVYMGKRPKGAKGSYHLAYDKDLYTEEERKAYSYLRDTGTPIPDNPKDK

[16] = Counterscreen for inhibitors of Trypanosoma brucei methionyl tRNA synthetase (MetRS): Luminescence-based cell-based high throughput dose response assay to identify compounds that are cytotoxic to Jurkat human T lymphocyte cells.; assay type: functional
[17] = molecular target: T3, Methionyl-tRNA synthetase, putative (Trypanosoma brucei brucei, UniProt Q38C91); assay type: functional, Trypanosoma brucei brucei strain 927/4 GUTat10.1
T3 sequence (Q38C91 whole entry): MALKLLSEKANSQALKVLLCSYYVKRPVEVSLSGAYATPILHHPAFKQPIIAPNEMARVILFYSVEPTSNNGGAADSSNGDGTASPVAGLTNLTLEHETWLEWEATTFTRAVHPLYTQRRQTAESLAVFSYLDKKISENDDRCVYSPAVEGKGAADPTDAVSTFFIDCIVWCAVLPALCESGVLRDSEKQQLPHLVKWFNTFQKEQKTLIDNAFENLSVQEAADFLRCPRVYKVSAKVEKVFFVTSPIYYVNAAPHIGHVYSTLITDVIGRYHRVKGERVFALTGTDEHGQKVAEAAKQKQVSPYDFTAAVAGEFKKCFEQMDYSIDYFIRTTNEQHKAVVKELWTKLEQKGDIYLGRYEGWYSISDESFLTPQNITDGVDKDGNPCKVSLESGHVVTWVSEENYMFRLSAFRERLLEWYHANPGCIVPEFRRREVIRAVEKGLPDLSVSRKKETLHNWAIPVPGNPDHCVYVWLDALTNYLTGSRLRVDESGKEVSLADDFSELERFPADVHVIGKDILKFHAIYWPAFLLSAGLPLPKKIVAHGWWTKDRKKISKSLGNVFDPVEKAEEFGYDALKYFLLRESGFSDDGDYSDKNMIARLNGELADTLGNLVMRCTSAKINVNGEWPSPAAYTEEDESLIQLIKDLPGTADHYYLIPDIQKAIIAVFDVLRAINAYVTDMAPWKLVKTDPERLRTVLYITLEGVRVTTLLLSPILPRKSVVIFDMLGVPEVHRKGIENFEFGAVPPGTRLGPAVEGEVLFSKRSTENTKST

[18] = molecular target: T3, Methionyl-tRNA synthetase, putative; assay type: functional, Trypanosoma brucei brucei strain 927/4 GUTat10.1; remark: listed apart in the source

With `O=[N+]([O-])c1ccc(N/N=C/C=C/c2ccco2)cc1` the IC50 [1] was > 49.8 µM (inactive) and the IC50 [2] was 4.19 µM (active).

For `O=C(NCc1ccccc1)C(c1ccccc1F)n1c(=O)c(-c2ccco2)nc2ccccc21` (stereo not given), the IC50 [3] was 2.24 µM (active).

With `CC(C)NC(=O)Nc1ccc2c(c1)CC(=O)N([C@H](C)CO)C[C@@H](C)[C@@H](CN(C)Cc1ccc(Oc3ccccc3)cc1)O2` the AC50 [4] was 132 µM (active).

With `C[C@@H]1CN([C@H](C)CO)C(=O)Cc2cc(NS(=O)(=O)c3cccs3)ccc2O[C@@H]1CN(C)S(=O)(=O)c1ccc(Cl)cc1` the AC50 [5] was 4.11 µM (active).

For `Cc1ccc(S(=O)(=O)N(C)C[C@@H]2Oc3c(NC(=O)CCCCCC(=O)Nc4ccccc4N)cccc3C(=O)N([C@H](C)CO)C[C@@H]2C)cc1`, the AC50 [5] was 6.27 µM (active).

For `CN(C)CCCNc1nc2cc(-c3ccccc3)sc2c(=O)n1C`, the AC50 [6] was 40.3 µM (active) and the AC50 [7] was 10.8 µM (active).

With `COc1ccc(S(=O)(=O)N(C)C[C@@H]2Oc3cc(-c4cccc(F)c4)ccc3S(=O)(=O)N([C@@H](C)CO)C[C@H]2C)cc1` the AC50 [8] was 3.72 µM (active).

With `COc1ccc(NC(=O)CS(=O)(=O)c2ccc(C)cc2)c(OC)c1` the IC50 [9] was 12 µM (inactive), the IC50 [10] was 35.9 µM (inactive) and the IC50 [11] was 10 µM (inactive).

For `Oc1ccc(/C=N/N(Cc2ccccc2)c2ccccc2)cc1`, the EC50 [12] was 9.38 µM (active), the AC50 [13] was 9.12 µM (active) and the EC50 [14] was 7.47 µM (active). The EC50 [15] was > 150 µM (not active).

In the case of `Clc1ccc(COC(Cn2ccnc2)c2ccc(Cl)cc2Cl)c(Cl)c1` (stereo not given) [MICONAZOLE], the IC50 [16] is reported as 33 µM (inactive), the IC50 [17] is reported as 11.7 µM (inactive) and the IC50 [18] is reported as 12.9 µM (inactive). For the same compound, the AC50 [13] was < 0.195 µM (active).
